The text below walks through data of patent US8822517B2, “Arylosulfonamides for the treatment of CNS diseases” (Adamed SP. Z O.O., priority 2010, dated 2014).

For assay [1], the system named is adrenergic α1 receptor. Briefly: Binding assay α1 (non-selective), [3H]prazosin, rat cerebral cortex. The note with it: percent inhibition of control specific binding; compounds tested at 1×10^−6 M. The method in brief: (§1)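 Detection relied on scintillation counting of bound ligand. Compounds at 1×10^−6 M were evaluated against specific binding, i.e. total binding corrected for the nonspecific fraction seen with excess unlabelled ligand.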

Assay [2] addresses T1, serotonine transporter (SERT) receptor (Homo sapiens, UniProt P31645).
T1 construct: expressed in transfected cells; host or cells: CHO cells
Briefly: Binding assay SERT (h), [3H]imipramine, CHO cells. The note with it: read-out: SERT [%]. The method in brief: as §1

Assay [3] addresses dopaminergic D2 receptor (Homo sapiens, UniProt P14416). Briefly: Binding assay D2S (h), [3H]methyl-spiperone, HEK-293 cells. Details: expressed in transfected cells; host or cells: HEK-293 cells. The note with it: read-out: D2 [%]. The method in brief: as §1
Assay [4] addresses dopaminergic D3 receptor (Homo sapiens, UniProt P35462). Briefly: Binding assay D3 (h), [3H]methyl-spiperone, CHO cells. Details: expressed in transfected cells; host or cells: CHO cells. The settings on record: read-out: D3 [%]. Put shortly: as §1
In assay [5] the target is T2, adrenergic α2C receptor (Homo sapiens, UniProt P18825).
T2 sequence (P18825 1-462): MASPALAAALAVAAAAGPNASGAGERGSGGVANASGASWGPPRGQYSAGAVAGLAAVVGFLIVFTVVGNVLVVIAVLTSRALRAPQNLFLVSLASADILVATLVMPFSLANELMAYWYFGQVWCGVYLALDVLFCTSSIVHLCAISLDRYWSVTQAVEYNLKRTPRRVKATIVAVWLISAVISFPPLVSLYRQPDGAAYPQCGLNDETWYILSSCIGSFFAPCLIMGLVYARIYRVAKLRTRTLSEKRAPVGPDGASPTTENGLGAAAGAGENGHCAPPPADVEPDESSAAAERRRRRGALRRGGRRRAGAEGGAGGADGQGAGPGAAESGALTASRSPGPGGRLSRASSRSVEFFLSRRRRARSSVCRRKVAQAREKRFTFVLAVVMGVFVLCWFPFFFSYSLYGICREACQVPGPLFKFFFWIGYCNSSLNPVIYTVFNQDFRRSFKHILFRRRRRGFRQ
Briefly: Binding assay α2C (h), [3H]RX 821002, CHO cells. Details: expressed in transfected cells; host or cells: CHO cells. The settings on record: read-out: α2C [%]. As to the method:
(§2) The specific ligand binding to the receptors is defined as the difference between the total binding and the nonspecific binding determined in the presence of an excess of so unlabelled ligand.
(§3) The specific Ligand binding to the receptor is defined as the difference between total and non-specific binding determined in the presence of an excess of unlabelled ligand. The compounds were tested at a concentration of 1×10^−6 M, and scintillation counting was the method of detection of ligand binding.

Assay [6] has as its target T3, serotoninergic 5-HT1A receptor (Homo sapiens, UniProt P08908).
T3 sequence (P08908 1-422): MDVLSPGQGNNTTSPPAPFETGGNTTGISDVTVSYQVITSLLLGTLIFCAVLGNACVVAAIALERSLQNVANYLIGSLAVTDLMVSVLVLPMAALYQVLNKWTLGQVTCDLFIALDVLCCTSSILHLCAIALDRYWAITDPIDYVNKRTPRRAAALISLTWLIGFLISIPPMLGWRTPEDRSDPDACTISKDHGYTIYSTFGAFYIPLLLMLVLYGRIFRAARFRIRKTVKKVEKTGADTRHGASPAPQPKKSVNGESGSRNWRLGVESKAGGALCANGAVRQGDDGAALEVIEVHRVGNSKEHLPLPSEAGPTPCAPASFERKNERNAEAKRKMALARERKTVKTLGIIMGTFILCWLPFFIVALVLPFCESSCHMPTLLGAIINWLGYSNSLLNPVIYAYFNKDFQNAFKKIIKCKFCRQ
Briefly: Binding assay 5-HT1A (h), [3H]8-OH-DPAT, HEK-293 cells. Also noted: expressed in transfected cells; host or cells: HEK-293 cells. The settings on record: read-out: 5-HT1A. Put shortly: as §1

The target of assay [7] is histaminergic H1 receptor (Homo sapiens, UniProt P35367). Briefly: Binding assay H1 (h), [3H]pyrilamine, HEK-293 cells. Also noted: expressed in transfected cells; host or cells: HEK-293 cells. The settings on record: read-out: H1 [%]. As to the method:
as §2, §3

Assay [8] concerns the target serotoninergic 5-HT7 receptor (Homo sapiens, UniProt P34969). Briefly: Binding assay 5-HT7 (h), [3H]LSD, CHO cells. Details: expressed in transfected cells; host or cells: CHO cells. The note with it: read-out: 5-HT7. The method in brief: as §1
Assay [9] addresses serotoninergic 5-HT2A receptor (Homo sapiens, UniProt P28223). Briefly: Binding assay 5-HT2A (h), [3H]ketanserin, HEK-293 cells. The settings on record: read-out: 5-HT2A. Also noted: expressed in transfected cells; host or cells: HEK-293 cells. The method in brief: as §1
In assay [10] the target is serotoninergic 5-HT6 receptor (Homo sapiens, UniProt P50406). Briefly: Binding assay 5-HT6 (h), [3H]LSD, CHO cells. Details: expressed in transfected cells; host or cells: CHO cells. The settings on record: read-out: 5-HT6. The method in brief: as §1
In assay [11] the target is T4, muscarinic M3 receptor (Homo sapiens, UniProt P20309).
T4 construct: expressed in transfected cells; host or cells: CHO cells
Briefly: Binding assay M3 (h), [3H]4-DAMP, CHO cells. The note with it: read-out: M3 [%]. How it is done: as §2, §3

Assay [12] concerns sigma σ receptor. Briefly: Binding assay σ (non-selective), [3H]DTG, rat cerebral cortex. The settings on record: percent inhibition of control specific binding; compounds tested at 1×10^−6 M. How it is done: as §2, §3
Assay [13] deals with T5, serotoninergic receptor 5-HT2C (Homo sapiens, UniProt P28335).
T5 construct: expressed in transfected cells; host or cells: HEK-293 cells
T5 sequence (P28335 33-458): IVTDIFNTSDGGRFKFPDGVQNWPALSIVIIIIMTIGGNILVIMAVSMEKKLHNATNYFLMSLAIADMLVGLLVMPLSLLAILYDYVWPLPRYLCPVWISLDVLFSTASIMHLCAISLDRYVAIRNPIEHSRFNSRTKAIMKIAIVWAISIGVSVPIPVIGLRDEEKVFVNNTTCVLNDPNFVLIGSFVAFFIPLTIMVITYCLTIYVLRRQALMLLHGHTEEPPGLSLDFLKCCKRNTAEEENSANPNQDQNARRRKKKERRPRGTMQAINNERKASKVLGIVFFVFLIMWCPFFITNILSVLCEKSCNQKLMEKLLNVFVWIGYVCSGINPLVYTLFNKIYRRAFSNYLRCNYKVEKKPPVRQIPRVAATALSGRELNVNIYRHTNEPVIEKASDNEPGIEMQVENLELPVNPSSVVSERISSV
Briefly: Binding assay 5-HT2C (h), [3H]mesulergine, HEK-293 cells. The note with it: read-out: 5-HT2C [%]. As to the method: as §2, §3

Chain of dopaminergic D3 receptor (P35462 whole entry): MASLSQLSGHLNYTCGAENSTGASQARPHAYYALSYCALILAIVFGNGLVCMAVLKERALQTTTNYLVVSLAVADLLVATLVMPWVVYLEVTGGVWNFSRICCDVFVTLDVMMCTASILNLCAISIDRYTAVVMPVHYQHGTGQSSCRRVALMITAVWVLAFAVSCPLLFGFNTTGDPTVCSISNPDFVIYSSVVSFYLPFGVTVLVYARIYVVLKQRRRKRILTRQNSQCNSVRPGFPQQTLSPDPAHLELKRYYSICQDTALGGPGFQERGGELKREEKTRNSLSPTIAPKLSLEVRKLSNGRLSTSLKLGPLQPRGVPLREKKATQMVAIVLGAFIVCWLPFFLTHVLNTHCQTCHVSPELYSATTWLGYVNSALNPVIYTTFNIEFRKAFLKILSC
T1 sequence (P31645 whole entry): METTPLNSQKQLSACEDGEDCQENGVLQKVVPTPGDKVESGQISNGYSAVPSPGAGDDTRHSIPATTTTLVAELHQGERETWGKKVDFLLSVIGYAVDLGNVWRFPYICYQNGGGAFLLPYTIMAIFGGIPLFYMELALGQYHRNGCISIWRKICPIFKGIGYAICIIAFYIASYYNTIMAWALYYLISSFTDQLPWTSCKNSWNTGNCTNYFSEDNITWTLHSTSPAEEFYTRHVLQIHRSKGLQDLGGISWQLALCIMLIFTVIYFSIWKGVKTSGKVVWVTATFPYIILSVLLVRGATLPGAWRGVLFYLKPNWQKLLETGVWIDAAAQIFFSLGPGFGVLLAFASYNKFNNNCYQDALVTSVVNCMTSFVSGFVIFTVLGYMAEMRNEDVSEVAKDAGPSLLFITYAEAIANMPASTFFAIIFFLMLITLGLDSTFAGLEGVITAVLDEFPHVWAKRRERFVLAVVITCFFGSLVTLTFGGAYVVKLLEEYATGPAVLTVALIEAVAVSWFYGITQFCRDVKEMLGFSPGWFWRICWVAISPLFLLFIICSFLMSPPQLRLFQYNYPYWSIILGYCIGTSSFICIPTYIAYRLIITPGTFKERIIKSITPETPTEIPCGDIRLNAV
Chain of serotoninergic 5-HT2A receptor (P28223 whole entry): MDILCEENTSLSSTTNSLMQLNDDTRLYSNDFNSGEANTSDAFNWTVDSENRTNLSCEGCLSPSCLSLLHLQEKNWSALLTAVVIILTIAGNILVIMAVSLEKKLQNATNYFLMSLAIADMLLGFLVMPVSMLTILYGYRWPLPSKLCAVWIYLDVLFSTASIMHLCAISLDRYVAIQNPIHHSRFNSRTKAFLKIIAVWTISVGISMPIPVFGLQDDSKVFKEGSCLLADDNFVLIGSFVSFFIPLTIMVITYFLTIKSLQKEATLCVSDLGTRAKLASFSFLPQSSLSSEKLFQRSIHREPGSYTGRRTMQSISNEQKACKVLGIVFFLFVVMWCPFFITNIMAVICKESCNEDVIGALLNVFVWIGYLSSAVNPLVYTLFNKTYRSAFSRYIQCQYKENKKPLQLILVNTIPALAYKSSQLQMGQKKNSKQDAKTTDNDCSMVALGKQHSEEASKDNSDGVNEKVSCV
Chain of serotoninergic 5-HT6 receptor (P50406 whole entry): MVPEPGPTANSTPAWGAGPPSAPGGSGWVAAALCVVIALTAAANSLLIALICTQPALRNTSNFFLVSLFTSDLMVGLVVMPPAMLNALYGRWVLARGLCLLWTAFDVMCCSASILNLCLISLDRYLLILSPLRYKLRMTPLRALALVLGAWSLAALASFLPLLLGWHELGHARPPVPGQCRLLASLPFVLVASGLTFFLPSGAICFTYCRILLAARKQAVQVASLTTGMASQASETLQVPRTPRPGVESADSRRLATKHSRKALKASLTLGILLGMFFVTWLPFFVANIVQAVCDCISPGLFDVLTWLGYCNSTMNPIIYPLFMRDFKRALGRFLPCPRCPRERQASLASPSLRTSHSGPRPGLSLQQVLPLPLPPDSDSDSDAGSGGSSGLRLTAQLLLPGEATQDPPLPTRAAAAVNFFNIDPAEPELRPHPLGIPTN
Chain of histaminergic H1 receptor (P35367 whole entry): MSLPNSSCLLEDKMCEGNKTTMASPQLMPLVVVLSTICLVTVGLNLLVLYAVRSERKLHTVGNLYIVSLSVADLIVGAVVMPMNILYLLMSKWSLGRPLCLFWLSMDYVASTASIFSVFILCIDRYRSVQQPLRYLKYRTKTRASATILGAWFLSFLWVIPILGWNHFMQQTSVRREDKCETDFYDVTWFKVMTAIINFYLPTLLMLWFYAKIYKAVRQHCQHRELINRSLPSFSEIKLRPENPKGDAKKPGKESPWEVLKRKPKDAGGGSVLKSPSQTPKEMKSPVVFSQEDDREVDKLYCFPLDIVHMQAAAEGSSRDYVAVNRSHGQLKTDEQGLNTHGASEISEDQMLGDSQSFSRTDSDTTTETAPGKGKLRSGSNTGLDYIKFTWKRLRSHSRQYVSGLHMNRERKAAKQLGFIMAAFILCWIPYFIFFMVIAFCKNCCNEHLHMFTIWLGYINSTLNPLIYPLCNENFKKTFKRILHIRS
Chain of dopaminergic D2 receptor (P14416 1-414 isoform P14416-2): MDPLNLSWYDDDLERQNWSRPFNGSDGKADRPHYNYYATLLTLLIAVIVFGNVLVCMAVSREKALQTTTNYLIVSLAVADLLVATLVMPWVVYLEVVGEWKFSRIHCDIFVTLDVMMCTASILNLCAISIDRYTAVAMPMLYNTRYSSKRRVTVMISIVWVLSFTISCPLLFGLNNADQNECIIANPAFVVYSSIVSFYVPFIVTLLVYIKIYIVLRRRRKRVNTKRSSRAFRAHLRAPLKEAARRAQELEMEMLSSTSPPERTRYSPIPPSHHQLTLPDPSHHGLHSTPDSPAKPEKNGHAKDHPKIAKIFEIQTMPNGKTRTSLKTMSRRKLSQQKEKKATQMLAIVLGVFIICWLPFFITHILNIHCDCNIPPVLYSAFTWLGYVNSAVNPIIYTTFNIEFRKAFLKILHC
Chain of serotoninergic 5-HT7 receptor (P34969 whole entry): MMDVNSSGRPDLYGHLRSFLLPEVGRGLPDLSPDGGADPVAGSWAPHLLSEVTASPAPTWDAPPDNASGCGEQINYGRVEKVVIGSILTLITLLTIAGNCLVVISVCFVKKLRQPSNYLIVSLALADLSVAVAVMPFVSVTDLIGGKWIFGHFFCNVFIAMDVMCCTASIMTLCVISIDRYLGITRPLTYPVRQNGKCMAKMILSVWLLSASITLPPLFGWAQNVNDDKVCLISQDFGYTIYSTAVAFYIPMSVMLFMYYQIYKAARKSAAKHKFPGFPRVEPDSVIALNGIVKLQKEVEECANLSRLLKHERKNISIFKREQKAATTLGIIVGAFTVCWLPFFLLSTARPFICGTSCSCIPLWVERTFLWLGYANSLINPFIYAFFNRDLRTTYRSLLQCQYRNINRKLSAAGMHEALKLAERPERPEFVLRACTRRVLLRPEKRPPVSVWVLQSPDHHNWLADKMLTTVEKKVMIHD
T4 sequence (P20309 whole entry): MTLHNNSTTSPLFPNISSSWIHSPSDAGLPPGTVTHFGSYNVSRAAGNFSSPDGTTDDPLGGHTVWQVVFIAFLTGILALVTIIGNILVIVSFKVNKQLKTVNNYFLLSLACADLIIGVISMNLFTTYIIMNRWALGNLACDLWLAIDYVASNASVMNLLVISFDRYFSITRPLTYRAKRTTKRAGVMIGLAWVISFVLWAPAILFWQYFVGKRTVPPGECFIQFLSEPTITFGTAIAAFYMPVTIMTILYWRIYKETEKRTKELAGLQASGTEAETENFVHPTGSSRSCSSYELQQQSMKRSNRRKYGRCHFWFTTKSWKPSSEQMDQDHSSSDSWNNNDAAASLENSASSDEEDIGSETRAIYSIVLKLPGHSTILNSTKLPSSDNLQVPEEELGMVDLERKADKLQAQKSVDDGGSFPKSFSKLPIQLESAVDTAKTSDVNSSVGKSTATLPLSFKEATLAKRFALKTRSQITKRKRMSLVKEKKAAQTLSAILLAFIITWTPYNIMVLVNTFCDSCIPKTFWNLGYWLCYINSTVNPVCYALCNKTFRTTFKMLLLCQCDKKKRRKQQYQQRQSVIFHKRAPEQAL

With `O=S(=O)(NCCCN1CCN(c2nsc3ccccc23)CC1)c1ccc(Br)cc1` [Compound 252, N-[3-[4-(1,2-Benzothiazol-3-yl)piperazin-1-yl]propyl]-4-bromobenzenesulphonamide], in assay [1], the “α1 [%]” value turned out to be 27%. The inhibition at 1 µM is 94% in assay [2]; 97% in assay [3]; 98% in [4]; 95% in [5]; 99% in assay [6]; -77% in assay [7]. The inhibition at 1 µM in assay [8] turned out to be 99%; in [9] it was 101%; in [10], 93%; in assay [11], 16%; in assay [13] it was 84%. In addition, the “σ [%]” value in [12] is listed as 59%.

Take `COc1cccc(S(=O)(=O)NCCCCN2CCC(c3noc4cc(F)ccc34)CC2)c1` [Compound 300, N-[4-[4-(6-Fluoro-1,2-benzoxazol-3-yl)piperidin-1-yl]butyl]-3-methoxybenzenesulphonamide]: the “α1 [%]” value in assay [1] came out at 96%. Besides, the inhibition at 1 µM in assay [2] came to 30%; in [3], 96%; in assay [4] it was 96%; in [5], 94%; in assay [6], 80%; in assay [7] it was 87%. Besides, the inhibition at 1 µM was 99% in [8]; 102% in assay [9]; 89% in assay [10]; 18% in assay [11]; 49% in assay [13]. The “σ [%]” value in [12] is 83%.

`O=S(=O)(NCCCCN1CCN(c2nsc3ccccc23)CC1)c1cccc2scnc12` [Compound 243, N-[4-[4-(1,2-Benzothiazol-3-yl)piperazin-1-yl]butyl]-1,3-benzothiazole-4-sulphonamide]: the “α1 [%]” value in assay [1] stood at 97%. The inhibition at 1 µM in [2] amounted to 63%; in assay [3] it was 100%; in assay [4], 93%; in assay [5] it was 96%; in [6] it was 98%; in assay [7] it was 93%. The inhibition at 1 µM in assay [8] came to 99%; in [9] it was 100%; in [10] it was 73%; in assay [11], 10%; in assay [13], 81%. Besides, the “σ [%]” value in assay [12] stood at 29%.

`O=S(=O)(NCCCN1CCN(c2nsc3ccccc23)CC1)c1cccs1` [Compound 261, N-[3-[4-(1,2-Benzothiazol-3-yl)piperazin-1-yl]propyl]thiophene-2-sulphonamide]: the “α1 [%]” value in assay [1] is recorded as −90%. The inhibition at 1 µM in assay [2] worked out at 60%; in assay [3] it was 97%; in assay [4], 98%; in [5] it was 92%; in assay [6] it was 98%; in assay [7] it was 92%. The inhibition at 1 µM in assay [8] came to 100%; in [9], 102%; in [10], 83%; in assay [11], 15%; in assay [13] it was 87%. In addition, the “σ [%]” value in assay [12] came to 57%.

Take `N#Cc1cccc(S(=O)(=O)NCCCN2CCN(c3nsc4ccccc34)CC2)c1` [Compound 74, N-[3-[4-(1,2-Benzothiazol-3-yl)piperazin-1-yl]propyl]-3-cyanobenzenesulphonamide]: the “α1 [%]” value in assay [1] is 94%. Besides, the inhibition at 1 µM in assay [2] worked out at 79%; in [3], 93%; in assay [4], 92%; in assay [5] it was 92%; in assay [6], 99%; in assay [7] it was 90%. In addition, the inhibition at 1 µM was 97% in assay [8]; 102% in assay [9]; 95% in [10]; 17% in assay [11]; 78% in assay [13]. For the same molecule, the “σ [%]” value in assay [12] came out at 34%.

In the case of `O=c1[nH]c2cccc(N3CCN(CCCCNS(=O)(=O)c4cccc5ccccc45)CC3)c2[nH]1` [Compound 418, N-[4-[4-(2-oxo-1,3-dihydrobenzimidazol-4-yl)piperazin-1-yl]butyl]naphthalene-1-sulphonamide], the “α1 [%]” value in [1] is given as 98%. For the same molecule, the inhibition at 1 µM was found to be 5% in assay [2]; 97% in [3]; 99% in [4]; 94% in [5]; 98% in [6]; 55% in assay [7]. In addition, the inhibition at 1 µM amounted to 89% in assay [8]; 36% in assay [9]; 5% in assay [10]; 4% in [11]; 19% in assay [13]. Besides, the “σ [%]” value in [12] was found to be 6%.

For `O=S(=O)(NCCCN1CCN(c2nsc3ccccc23)CC1)c1cc2ccccc2s1` [Compound 262, N-[3-[4-(1,2-Benzothiazol-3-yl)piperazin-1-yl]propyl]benzothiophene-2-sulphonamide], in [1], the “α1 [%]” value is 95%. Moreover, the inhibition at 1 µM in assay [2] came to 87%; in [3] it was 98%; in assay [4] it was 98%; in assay [5], 94%; in assay [6], 99%; in [7] it was 95%. In addition, the inhibition at 1 µM in [8] came to 99%; in assay [9], 102%; in [10], 93%; in [11] it was 19%; in assay [13], 84%. The “σ [%]” value in assay [12] was determined as 51%.
